The values below come from US11583495B2, “Nasal composition comprising a mucoadhesive polymer” (Northriver Pharm, LLC, priority 2017, dated 2023).

The nature of the data set: Drug release through lamb buccal mucosa, flow-through Franz diffusion cell. Conditions: from CARBOPOL ETD 2020 NF (1%) solution containing triamcinolone and phenol. On the procedure:
Drug release through lamb buccal mucosa was evaluated via a flow-through Franz diffusion cell. Lamb buccal mucosa was clamped into the cell and the receptor chamber was filled with 5 mL of phosphate buffered solution (PBS). CARBOPOL® ETD 2020 NF (1%) solution containing triamcinolone and phenol was applied to the donor chamber. 0.5 mL of PBS was withdrawn from the receptor chamber every 30 minutes and replaced with fresh PBS over the course of 7 hours. Each sample was placed in a cuvette for testing via UV-Vis spectrophotometry. The sample was compared to a set of calibration standards of known concentrations for triamcinolone and phenol, independently. […] The peaks at 225 nm and 270 nm correspond to phenol, and the peak at 240 corresponds with triamcinolone.

`Oc1ccccc1` [Phenol, phenol]: the “Phenol diffusion through the mucosa” value (UV-Vis, based on calibration curve, over 7 hours) was “less than 0.025%”. Further, where the note is “sampled every 30 minutes over 7 hours”, the “amounts released over time and diffused through the lamb buccal mucosa” value is on record as “Increasing amounts”.
